Tests used:
Type in all cases: in vivo
[1] = system: pigweed (Amaranthus retroflexus); experiment: Test A postemergence, pigweed; settings: visual injury, 0 to 100 scale (0 no effect, 100 complete control), approximately 10 days
Method in brief: (§1)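 Ratings use a 0–100 scale, where 0 means no effect and 100 means complete control, and come from visual comparison with untreated plants roughly 10 days after treatment. Compounds were applied in a surfactant-containing, non-phytotoxic solvent, either to soil after seeding or to foliage of small seedlings.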

[2] = system: pigweed (Amaranthus retroflexus); experiment: Test A preemergence, pigweed; settings: 0 to 100 scale (0 no effect, 100 complete control)
Method in brief: as §1

rice (Oryza sativa) = experiment: Test B flooded paddy test, rice; settings: applied to paddy water, visual rating after 13 to 15 days, scale 0 (no effect) to 100 (complete control)
Method in brief: (§2)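 Compound was added to standing water 3 cm above soil, flood maintained, and plants held in a greenhouse before visual scoring against controls at 13 to 15 days.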

[3] = system: ryegrass, Italian (Lolium multiflorum); experiment: Test A postemergence, Italian ryegrass; settings: visual injury, 0 to 100 scale (0 no effect, 100 complete control), approximately 10 days
Method in brief: as §1

[4] = system: barnyardgrass (Echinochloa crus-galli); experiment: Test A postemergence, barnyardgrass; settings: visual injury, 0 to 100 scale (0 no effect, 100 complete control), approximately 10 days
Method in brief: as §1

[5] = system: foxtail, giant (Setaria faberii); experiment: Test A preemergence, giant foxtail; settings: 0 to 100 scale (0 no effect, 100 complete control)
Method in brief: as §1

[6] = system: galium (catchweed bedstraw, Galium aparine); experiment: Test A postemergence, galium; settings: visual injury, 0 to 100 scale (0 no effect, 100 complete control), approximately 10 days
Method in brief: as §1

[7] = system: sedge, umbrella (small-flower umbrella sedge, Cyperus difformis); experiment: Test B flooded paddy test, umbrella sedge; settings: applied to paddy water, visual rating after 13 to 15 days, scale 0 (no effect) to 100 (complete control)
Method in brief: as §2

kochia (Kochia scoparia) [8] = experiment: Test A preemergence, kochia; settings: 0 to 100 scale (0 no effect, 100 complete control)
Method in brief: as §1

[9] = system: foxtail, giant (Setaria faberii); experiment: Test A postemergence, giant foxtail; settings: visual injury, 0 to 100 scale (0 no effect, 100 complete control), approximately 10 days
Method in brief: as §1

[10] = system: ryegrass, Italian (Lolium multiflorum); experiment: Test A preemergence, Italian ryegrass; settings: 0 to 100 scale (0 no effect, 100 complete control)
Method in brief: as §1

[11] = system: ragweed (common ragweed, Ambrosia elatior); experiment: Test A preemergence, ragweed; settings: 0 to 100 scale (0 no effect, 100 complete control)
Method in brief: as §1

corn (Zea mays) = experiment: Test A postemergence, corn; settings: visual injury, 0 to 100 scale (0 no effect, 100 complete control), approximately 10 days
Method in brief: as §1

[12] = system: ragweed (common ragweed, Ambrosia elatior); experiment: Test A postemergence, ragweed; settings: visual injury, 0 to 100 scale (0 no effect, 100 complete control), approximately 10 days
Method in brief: as §1

[13] = system: wheat (Triticum aestivum); experiment: Test A postemergence, wheat; settings: visual injury, 0 to 100 scale (0 no effect, 100 complete control), approximately 10 days
Method in brief: as §1

[14] = system: barnyardgrass (Echinochloa crus-galli); experiment: Test A preemergence, barnyardgrass; settings: 0 to 100 scale (0 no effect, 100 complete control)
Method in brief: as §1

[15] = system: blackgrass (Alopecurus myosuroides); experiment: Test A postemergence, blackgrass; settings: visual injury, 0 to 100 scale (0 no effect, 100 complete control), approximately 10 days
Method in brief: as §1

[16] = system: barnyardgrass (Echinochloa crus-galli); experiment: Test B flooded paddy test, barnyardgrass; settings: applied to paddy water, visual rating after 13 to 15 days, scale 0 (no effect) to 100 (complete control)
Method in brief: as §2

kochia (Kochia scoparia) [17] = experiment: Test A postemergence, kochia; settings: visual injury, 0 to 100 scale (0 no effect, 100 complete control), approximately 10 days
Method in brief: as §1

[18] = system: ducksalad (Heteranthera limosa); experiment: Test B flooded paddy test, ducksalad; settings: applied to paddy water, visual rating after 13 to 15 days, scale 0 (no effect) to 100 (complete control)
Method in brief: as §2

SMILES | Plant response rating, Pigweed ([1]; 125 g ai/ha) | Plant response rating, Pigweed ([1]; 500 g ai/ha) | Plant response rating, Pigweed ([2]; 125 g ai/ha) | Plant response rating, Pigweed ([2]; 500 g ai/ha) | Plant response rating, Ryegrass, Italian ([3]; 125 g ai/ha) | Plant response rating, Ryegrass, Italian ([3]; 500 g ai/ha) | Plant response rating, Barnyardgrass ([4]; 125 g ai/ha) | Plant response rating, Barnyardgrass ([4]; 500 g ai/ha) | Plant response rating, Foxtail, Giant ([5]; 125 g ai/ha) | Plant response rating, Foxtail, Giant ([5]; 500 g ai/ha) | Plant response rating, Galium ([6]; 125 g ai/ha) | Plant response rating, Galium ([6]; 500 g ai/ha) | Plant response rating, Kochia (kochia (Kochia scoparia) [8]; 500 g ai/ha) | Plant response rating, Foxtail, Giant ([9]; 125 g ai/ha) | Plant response rating, Foxtail, Giant ([9]; 500 g ai/ha) | Plant response rating, Ryegrass, Italian ([10]; 125 g ai/ha) | Plant response rating, Ryegrass, Italian ([10]; 500 g ai/ha) | Plant response rating, Ragweed ([11]; 125 g ai/ha) | Plant response rating, Ragweed ([11]; 500 g ai/ha) | Plant response rating, Corn (corn (Zea mays); 125 g ai/ha) | further results
O=C1NCC(c2ccccc2Cn2ccc(C(F)(F)F)n2)C1C(=O)Nc1cccc(F)c1F (centres unmarked) [Compound 57] | 0 | 20 | 0 | 0 | 0 | 0 | 0 | 60 | 60 | 90 | 0 | 20 | 0 | 40 | 70 | 0 | 0 | 0 | 0 | 30 | Plant response rating, Rice (Flood) (rice (Oryza sativa); 250 g ai/ha): 0; Plant response rating, Sedge, Umbrella (Flood) ([7]; 250 g ai/ha): 0; Plant response rating, Corn (corn (Zea mays); 500 g ai/ha): 30; Plant response rating, Ragweed ([12]; 125 g ai/ha): 0; Plant response rating, Ragweed ([12]; 500 g ai/ha): 30; Plant response rating, Wheat ([13]; 125 g ai/ha): 0; Plant response rating, Wheat ([13]; 500 g ai/ha): 0; Plant response rating, Barnyardgrass ([14]; 125 g ai/ha): 40; Plant response rating, Barnyardgrass ([14]; 500 g ai/ha): 90; Plant response rating, Blackgrass ([15]; 125 g ai/ha): 0; Plant response rating, Blackgrass ([15]; 500 g ai/ha): 30; Plant response rating, Barnyardgrass (Flood) ([16]; 250 g ai/ha): 0; Plant response rating, Kochia (kochia (Kochia scoparia) [17]; 125 g ai/ha): 0; Plant response rating, Kochia (kochia (Kochia scoparia) [17]; 500 g ai/ha): 20; Plant response rating, Ducksalad (Flood) ([18]; 250 g ai/ha): 0
O=C1NCC(c2cccc(Cn3ccc(C(F)(F)F)n3)c2)C1C(=O)Nc1ccccc1F (centres unmarked) [Compound 23] | 0 | 0 | 0 | 0 | 0 | 0 | 0 | 30 | 20 | 50 | 0 | 0 | 20 | 0 | 20 | 0 | 0 | 0 | 0 | 0 | Plant response rating, Rice (Flood) (rice (Oryza sativa); 500 g ai/ha): 0; Plant response rating, Sedge, Umbrella (Flood) ([7]; 500 g ai/ha): 0; Plant response rating, Kochia (kochia (Kochia scoparia) [8]; 125 g ai/ha): 0; Plant response rating, Corn (corn (Zea mays); 500 g ai/ha): 0; Plant response rating, Ragweed ([12]; 125 g ai/ha): 0; Plant response rating, Ragweed ([12]; 500 g ai/ha): 0; Plant response rating, Wheat ([13]; 125 g ai/ha): 0; Plant response rating, Wheat ([13]; 500 g ai/ha): 0; Plant response rating, Barnyardgrass ([14]; 125 g ai/ha): 0; Plant response rating, Barnyardgrass ([14]; 500 g ai/ha): 20; Plant response rating, Blackgrass ([15]; 125 g ai/ha): 0; Plant response rating, Blackgrass ([15]; 500 g ai/ha): 0; Plant response rating, Barnyardgrass (Flood) ([16]; 500 g ai/ha): 0; Plant response rating, Kochia (kochia (Kochia scoparia) [17]; 125 g ai/ha): 0; Plant response rating, Kochia (kochia (Kochia scoparia) [17]; 500 g ai/ha): 0; Plant response rating, Ducksalad (Flood) ([18]; 500 g ai/ha): 0
O=C1NCC(c2cccc(Oc3ccccn3)c2)C1C(=O)Nc1ccccc1Cl (centres unmarked) [Compound 69] | 0 | 0 | 0 | 0 | 0 | 0 | 0 | 20 | 0 | 50 | 0 | 0 | 0 | 0 | 30 | 0 | 0 | 0 | 0 | 0 | Plant response rating, Rice (Flood) (rice (Oryza sativa); 500 g ai/ha): 0; Plant response rating, Sedge, Umbrella (Flood) ([7]; 500 g ai/ha): 0; Plant response rating, Kochia (kochia (Kochia scoparia) [8]; 125 g ai/ha): 0; Plant response rating, Corn (corn (Zea mays); 500 g ai/ha): 0; Plant response rating, Ragweed ([12]; 125 g ai/ha): 0; Plant response rating, Ragweed ([12]; 500 g ai/ha): 0; Plant response rating, Wheat ([13]; 125 g ai/ha): 0; Plant response rating, Wheat ([13]; 500 g ai/ha): 0; Plant response rating, Barnyardgrass ([14]; 125 g ai/ha): 0; Plant response rating, Barnyardgrass ([14]; 500 g ai/ha): 0; Plant response rating, Blackgrass ([15]; 125 g ai/ha): 0; Plant response rating, Blackgrass ([15]; 500 g ai/ha): 0; Plant response rating, Barnyardgrass (Flood) ([16]; 500 g ai/ha): 0; Plant response rating, Kochia (kochia (Kochia scoparia) [17]; 125 g ai/ha): 0; Plant response rating, Kochia (kochia (Kochia scoparia) [17]; 500 g ai/ha): 0; Plant response rating, Ducksalad (Flood) ([18]; 500 g ai/ha): 70
O=C1NCC(c2cccc(OCc3ccco3)c2)C1C(=O)Nc1cccc(F)c1F (centres unmarked) [Compound 9] | 0 | 0 | 0 | 0 | 0 | 0 | 30 | 60 | 10 | 70 | 0 | 0 | 0 | 0 | 50 | 0 | 0 | 0 | 0 | 0 | Plant response rating, Rice (Flood) (rice (Oryza sativa); 250 g ai/ha): 0; Plant response rating, Sedge, Umbrella (Flood) ([7]; 250 g ai/ha): 30; Plant response rating, Kochia (kochia (Kochia scoparia) [8]; 125 g ai/ha): 0; Plant response rating, Corn (corn (Zea mays); 500 g ai/ha): 20; Plant response rating, Ragweed ([12]; 125 g ai/ha): 0; Plant response rating, Ragweed ([12]; 500 g ai/ha): 0; Plant response rating, Wheat ([13]; 125 g ai/ha): 0; Plant response rating, Wheat ([13]; 500 g ai/ha): 0; Plant response rating, Barnyardgrass ([14]; 125 g ai/ha): 10; Plant response rating, Barnyardgrass ([14]; 500 g ai/ha): 70; Plant response rating, Blackgrass ([15]; 125 g ai/ha): 0; Plant response rating, Blackgrass ([15]; 500 g ai/ha): 0; Plant response rating, Barnyardgrass (Flood) ([16]; 250 g ai/ha): 0; Plant response rating, Kochia (kochia (Kochia scoparia) [17]; 125 g ai/ha): 0; Plant response rating, Kochia (kochia (Kochia scoparia) [17]; 500 g ai/ha): 0; Plant response rating, Ducksalad (Flood) ([18]; 250 g ai/ha): 30

Reference: patent publication US10405547B2, “Substituted cyclic amides as herbicides” (FMC Corporation, priority 2015, dated 2019)
